The record followed here is ChEMBL document CHEMBL4765492, “Discovery of GLPG2451, a Novel Once Daily Potentiator for the Treatment of Cystic Fibrosis” (J Med Chem, 2021).

Series [1] deals with Cystic fibrosis transmembrane conductance regulator (Homo sapiens, UniProt P13569, F508DEL). Briefly: Potentiation of CFTR F508del mutant (unknown origin) expressed in human CFBE41o- cells co-expressing YFP incubated for 10 mins by halide potentiator assay. Format: cell-based.
Series [2] in a line: Unbound intrinsic clearance in rat liver microsomes. Format: ADME, Microsome. (In general: Liver microsomes are vesicles of endoplasmic reticulum, rich in cytochrome P450 enzymes.)
For series [3], the system named is Cystic fibrosis transmembrane conductance regulator (Homo sapiens), P13569 [G551D]. Briefly: Potentiation of CFTR G551D mutant (unknown origin) expressed in human HEK293 cells co-expressing YFP incubated for 10 mins by halide potentiator assay relative to control. Particulars: filed as activator. Format: cell-based.
Cystic fibrosis transmembrane conductance regulator (Homo sapiens), P13569 [G551D], sequence (P13569 whole entry G551D): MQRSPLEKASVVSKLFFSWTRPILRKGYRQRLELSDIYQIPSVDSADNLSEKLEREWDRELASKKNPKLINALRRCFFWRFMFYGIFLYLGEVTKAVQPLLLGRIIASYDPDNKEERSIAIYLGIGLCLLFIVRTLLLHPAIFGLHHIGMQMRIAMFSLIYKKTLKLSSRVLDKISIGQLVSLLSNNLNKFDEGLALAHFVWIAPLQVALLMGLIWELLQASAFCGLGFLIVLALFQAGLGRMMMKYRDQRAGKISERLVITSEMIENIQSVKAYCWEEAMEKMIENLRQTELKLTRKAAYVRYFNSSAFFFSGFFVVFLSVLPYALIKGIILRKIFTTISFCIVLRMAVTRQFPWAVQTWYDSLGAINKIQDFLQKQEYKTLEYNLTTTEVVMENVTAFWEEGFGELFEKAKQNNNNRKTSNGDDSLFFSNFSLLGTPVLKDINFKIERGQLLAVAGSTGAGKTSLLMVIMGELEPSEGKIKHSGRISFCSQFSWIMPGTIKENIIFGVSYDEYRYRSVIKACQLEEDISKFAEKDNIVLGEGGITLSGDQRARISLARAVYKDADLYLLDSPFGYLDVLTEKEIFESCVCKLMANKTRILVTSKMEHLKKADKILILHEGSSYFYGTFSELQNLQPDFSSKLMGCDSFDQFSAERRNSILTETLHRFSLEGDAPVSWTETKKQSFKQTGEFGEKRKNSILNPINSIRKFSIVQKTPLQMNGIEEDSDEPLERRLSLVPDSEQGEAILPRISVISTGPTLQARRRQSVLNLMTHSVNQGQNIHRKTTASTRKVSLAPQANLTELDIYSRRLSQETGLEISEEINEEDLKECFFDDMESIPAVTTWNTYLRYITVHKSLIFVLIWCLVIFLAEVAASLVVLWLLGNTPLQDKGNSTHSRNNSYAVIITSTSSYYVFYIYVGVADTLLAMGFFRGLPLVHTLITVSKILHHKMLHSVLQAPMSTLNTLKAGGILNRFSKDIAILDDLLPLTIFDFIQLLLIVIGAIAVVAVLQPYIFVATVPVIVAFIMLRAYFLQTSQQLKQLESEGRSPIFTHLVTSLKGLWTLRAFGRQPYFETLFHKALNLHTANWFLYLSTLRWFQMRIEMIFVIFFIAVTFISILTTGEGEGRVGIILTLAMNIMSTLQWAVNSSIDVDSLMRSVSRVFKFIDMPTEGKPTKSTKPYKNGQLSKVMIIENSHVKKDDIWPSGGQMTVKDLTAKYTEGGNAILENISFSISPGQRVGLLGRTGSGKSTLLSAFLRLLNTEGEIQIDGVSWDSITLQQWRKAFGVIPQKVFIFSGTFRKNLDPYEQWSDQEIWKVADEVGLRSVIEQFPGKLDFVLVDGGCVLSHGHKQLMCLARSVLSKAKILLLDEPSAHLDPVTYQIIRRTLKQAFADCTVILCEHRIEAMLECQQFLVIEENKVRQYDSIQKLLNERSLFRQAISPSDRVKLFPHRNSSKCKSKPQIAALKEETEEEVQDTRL
The nature of series [4]: Permeability of compound across apical to basolateral membrane in MDCK cells. Format: ADME, cell-based, Canis lupus familiaris. Particulars: dog, read-out: permeability.
Series [5] in a line: Permeability efflux ratio in MDCK cells. Format: ADME, cell-based, Canis lupus familiaris. As to conditions: dog.
The test system of series [6] is Cystic fibrosis transmembrane conductance regulator (Homo sapiens), P13569 [F508del,G551D]. As to the kind of experiment: Potentiation of CFTR F508del/G551D mutant in human HBE cells assessed as increase in channel current at 10 nM to 1000 nM incubated for 20 mins by Ussing chamber assay. Format: cell-based. As to conditions: Primary bronchial epithelial cell, filed as activator.
Cystic fibrosis transmembrane conductance regulator (Homo sapiens), P13569 [F508del,G551D], sequence (P13569 as listed by the source): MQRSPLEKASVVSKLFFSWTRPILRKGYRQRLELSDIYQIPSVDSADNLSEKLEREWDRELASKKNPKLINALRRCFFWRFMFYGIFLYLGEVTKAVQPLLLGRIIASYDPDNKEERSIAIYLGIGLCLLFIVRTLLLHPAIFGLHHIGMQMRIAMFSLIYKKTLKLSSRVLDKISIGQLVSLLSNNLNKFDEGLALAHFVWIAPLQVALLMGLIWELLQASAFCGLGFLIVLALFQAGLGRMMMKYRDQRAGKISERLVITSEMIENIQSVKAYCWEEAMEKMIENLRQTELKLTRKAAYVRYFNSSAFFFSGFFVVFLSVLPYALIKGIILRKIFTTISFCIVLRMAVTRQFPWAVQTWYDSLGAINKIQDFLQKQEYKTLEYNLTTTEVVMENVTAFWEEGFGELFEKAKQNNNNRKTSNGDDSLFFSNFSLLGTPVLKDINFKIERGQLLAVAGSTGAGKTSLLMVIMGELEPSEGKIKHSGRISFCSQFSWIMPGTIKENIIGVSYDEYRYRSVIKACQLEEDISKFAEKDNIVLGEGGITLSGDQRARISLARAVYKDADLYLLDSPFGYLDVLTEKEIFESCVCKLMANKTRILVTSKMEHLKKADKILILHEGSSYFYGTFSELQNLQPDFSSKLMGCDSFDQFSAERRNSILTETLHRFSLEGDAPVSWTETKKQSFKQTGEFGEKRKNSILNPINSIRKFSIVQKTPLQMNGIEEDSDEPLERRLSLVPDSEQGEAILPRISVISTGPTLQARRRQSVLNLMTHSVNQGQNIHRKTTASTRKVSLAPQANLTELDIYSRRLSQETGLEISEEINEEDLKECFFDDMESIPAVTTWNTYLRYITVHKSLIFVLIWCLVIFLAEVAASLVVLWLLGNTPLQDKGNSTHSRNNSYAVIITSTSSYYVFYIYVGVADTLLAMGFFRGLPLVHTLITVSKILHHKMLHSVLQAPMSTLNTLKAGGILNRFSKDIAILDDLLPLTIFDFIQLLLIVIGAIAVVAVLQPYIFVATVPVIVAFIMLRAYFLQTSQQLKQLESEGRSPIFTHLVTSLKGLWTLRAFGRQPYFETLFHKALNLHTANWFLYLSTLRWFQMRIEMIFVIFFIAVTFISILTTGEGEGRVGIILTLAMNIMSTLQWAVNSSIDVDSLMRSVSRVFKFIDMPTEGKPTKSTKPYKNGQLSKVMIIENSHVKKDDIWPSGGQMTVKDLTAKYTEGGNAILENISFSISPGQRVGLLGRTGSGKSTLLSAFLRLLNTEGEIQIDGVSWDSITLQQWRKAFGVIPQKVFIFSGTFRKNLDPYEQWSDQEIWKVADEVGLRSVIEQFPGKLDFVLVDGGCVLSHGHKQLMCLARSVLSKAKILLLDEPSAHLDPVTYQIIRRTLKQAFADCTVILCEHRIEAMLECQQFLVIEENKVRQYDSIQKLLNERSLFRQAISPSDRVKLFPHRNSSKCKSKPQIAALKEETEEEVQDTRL

Series [7] in a line: Clearance in rat at 1 mg/kg, iv relative to hepatic blood flow. Format: ADME, organism-based. As to conditions: in vivo.
Series [8] in a line: AUC in rat at 5 mg/kg, po. Format: ADME, organism-based. Also on record: dose 5 mg/kg. As to conditions: in vivo.
Series [9] can be described thus: Clearance in Sprague-Dawley rat at 1 mg/kg, iv. Format: ADME, organism-based. Particulars: in vivo.
Series [10] in a line: Unbound intrinsic clearance in human liver microsomes. Format: ADME, Microsome.
A short description of series [11]: Volume of distribution at steady state in Sprague-Dawley rat at 1 mg/kg, iv. As to conditions: in vivo, read-out: Vdss. Format: ADME, organism-based.
The nature of series [12]: Unbound clearance in Sprague-Dawley rat at 1 mg/kg, iv. Format: ADME, organism-based. As to conditions: in vivo.
Series [13] concerns the target Cystic fibrosis transmembrane conductance regulator (Homo sapiens, UniProt P13569, G551D). As to the kind of experiment: Potentiation of CFTR G551D mutant (unknown origin) expressed in human HEK293 cells co-expressing YFP incubated for 10 mins by halide potentiator assay. Format: cell-based.
A short description of series [14]: Half life in Sprague-Dawley rat at 1 mg/kg, iv. Format: ADME, organism-based. As to conditions: in vivo.
A short description of series [15]: Oral bioavailability in rat at 5 mg/kg. Particulars: in vivo. Format: ADME, organism-based.

The structures appear in SMILES notation. pEC50: −log10 of the molar value. Calls of active or inactive are those of the source. The rule behind the calls is not given here.

Cystic fibrosis transmembrane conductance regulator (Homo sapiens, UniProt P13569, F508DEL), sequence (P13569 as listed by the source): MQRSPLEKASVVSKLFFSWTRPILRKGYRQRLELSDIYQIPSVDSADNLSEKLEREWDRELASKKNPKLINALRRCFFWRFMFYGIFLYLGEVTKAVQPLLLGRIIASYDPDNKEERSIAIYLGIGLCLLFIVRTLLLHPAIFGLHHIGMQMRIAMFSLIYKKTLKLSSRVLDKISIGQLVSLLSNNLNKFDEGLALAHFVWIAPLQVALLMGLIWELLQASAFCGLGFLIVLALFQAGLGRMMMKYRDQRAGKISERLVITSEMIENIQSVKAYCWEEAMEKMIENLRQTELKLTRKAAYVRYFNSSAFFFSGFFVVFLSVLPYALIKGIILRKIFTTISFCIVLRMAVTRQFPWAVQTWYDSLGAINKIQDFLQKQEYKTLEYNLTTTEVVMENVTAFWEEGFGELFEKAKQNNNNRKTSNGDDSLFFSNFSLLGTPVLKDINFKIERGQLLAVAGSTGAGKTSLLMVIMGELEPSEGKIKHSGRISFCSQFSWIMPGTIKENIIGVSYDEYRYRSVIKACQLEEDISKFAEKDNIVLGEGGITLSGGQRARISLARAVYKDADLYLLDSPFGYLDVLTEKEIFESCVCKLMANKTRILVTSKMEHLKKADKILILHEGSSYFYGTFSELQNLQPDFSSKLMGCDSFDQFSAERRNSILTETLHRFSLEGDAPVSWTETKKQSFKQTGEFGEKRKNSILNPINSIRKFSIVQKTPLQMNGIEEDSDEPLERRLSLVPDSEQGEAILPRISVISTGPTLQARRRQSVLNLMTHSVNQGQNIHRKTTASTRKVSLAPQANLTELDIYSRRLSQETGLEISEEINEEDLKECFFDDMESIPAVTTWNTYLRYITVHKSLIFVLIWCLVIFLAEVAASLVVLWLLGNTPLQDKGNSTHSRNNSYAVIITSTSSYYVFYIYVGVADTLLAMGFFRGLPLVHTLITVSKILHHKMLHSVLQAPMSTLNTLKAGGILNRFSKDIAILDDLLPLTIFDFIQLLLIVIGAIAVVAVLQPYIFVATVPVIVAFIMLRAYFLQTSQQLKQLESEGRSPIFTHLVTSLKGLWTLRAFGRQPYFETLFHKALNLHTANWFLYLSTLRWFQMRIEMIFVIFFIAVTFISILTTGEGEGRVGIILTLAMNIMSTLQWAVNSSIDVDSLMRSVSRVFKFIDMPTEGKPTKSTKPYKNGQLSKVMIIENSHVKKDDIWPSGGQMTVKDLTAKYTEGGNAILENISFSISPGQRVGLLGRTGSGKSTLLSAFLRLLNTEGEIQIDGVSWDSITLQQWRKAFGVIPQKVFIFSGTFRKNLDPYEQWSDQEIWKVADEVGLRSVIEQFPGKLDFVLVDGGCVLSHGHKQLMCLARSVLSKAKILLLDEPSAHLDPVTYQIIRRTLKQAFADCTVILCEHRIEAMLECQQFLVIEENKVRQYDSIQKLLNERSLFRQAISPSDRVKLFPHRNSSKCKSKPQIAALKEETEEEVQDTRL
Cystic fibrosis transmembrane conductance regulator (Homo sapiens, UniProt P13569, G551D), sequence (P13569 whole entry G551D): as the sequence (P13569 whole entry G551D) above

With `Nc1cc(S(=O)(=O)c2ccc(C(F)(F)F)cc2)cnc1C(=O)N1CCC[C@H]1CO`, the negative-log EC50 (pEC50) (commonly −log10 of the EC50, conventionally taken in molar units) in series [1] was under 5.70.
With `Nc1cc(S(=O)(=O)c2ccc(OC(F)(F)F)cc2)cnc1C(=O)NCC1(O)CC1`, the negative-log EC50 (pEC50) in series [1] was 8.55. In series [2], this molecule showed a CL free of 5.6 L/h/kg.
For `CC(C)(C)c1cc(C(C)(C)C)c(NC(=O)c2c[nH]c3ccccc3c2=O)cc1O`, the Activity in series [3] was determined as 53%.
Regarding `CN(C[C@@H](O)C(F)(F)F)C(=O)c1ncc(S(=O)(=O)c2ccc(F)cc2)cc1N`, the negative logarithm of the EC50 (pEC50) in series [1] is under 5.70.
As for `Nc1cc(S(=O)(=O)c2ccc(F)cc2)cnc1C(=O)N1CC(O)(C(F)(F)F)C1`, the pEC50 in [1] was 8.96. The CL free in series [2] is 1.7 L/h/kg.
With `CC(C)(C)C(=O)Nc1sc(S(=O)(=O)c2ccc(F)cc2)cc1C(N)=O`, in series [1], the pEC50 was 6.45. Moreover, the CL free in series [2] was 6.3 L/h/kg.
As for `CN(Cc1ccccc1)S(=O)(=O)c1cc(C(N)=O)c(NC(=O)c2ccn[nH]2)s1`, the Papp A→B in series [4] stood at 0.65 ×10⁻⁶ cm/s. Besides, in series [1], the pEC50 was 7.77. For the same molecule, in series [5], the efflux ratio (as a rule, a quotient of directional permeabilities that is used to spot active efflux) worked out at 47. Also, the CL free in series [2] is 113 L/h/kg. Further, the Activity in series [3] stood at 115%. Besides, in [6], the outcome was Active.
Consider `COc1ccc(S(=O)(=O)c2cc(C(N)=O)c(NC(=O)C(C)(C)O)s2)cc1`, for which, in series [7], the CLH is under 3%. Further, the area under the curve (AUC) – broadly, the area under the concentration-time curve, a measure of exposure – in [8] was 12400 ng·h/mL. The clearance (commonly the volume of plasma or blood freed of the substance per unit of time) in [9] was 2.05 mL/min/kg. Also, the CL free in series [10] was found to be 0.6 L/h/kg; in series [12] it was 10 L/h/kg; in series [2] it was 2 L/h/kg. Besides, the values for the negative-log EC50 (pEC50) in [1] and in series [13] were 7.70 and 6.32, respectively. For the same molecule, the Vd in [11] worked out at 2.7 L/kg. The half-life (as a rule, the time in which the quantity being followed falls by half) in series [14] is 930 min. For the same molecule, the bioavailability – broadly, dose-corrected exposure relative to a reference, in per cent – in series [15] came to 46%. Also, the Activity in series [3] came to 85%.
Regarding `NC(=O)c1cc(S(=O)(=O)c2ccc(F)cc2)sc1NC(=O)c1ccn[nH]1`, in [4], the Papp A→B was found to be 0.9 ×10⁻⁶ cm/s. The pEC50 in series [1] is 7.54. Moreover, in [5], the efflux ratio amounted to 37. The molecule further registered a CL free in series [2] of 4.3 L/h/kg.
